Laboratory results published in patent US20070197513A1, “Ion channel modulators” (priority 2004, published 2007).
Read-outs that look alike come from different tables or passages of the source.

Tested on: calcium channel (e.g., L-type, N-type, etc.) current
Assay: HEK assay: whole-cell voltage clamp in transiently transfected HEK-293T/17 cells
Format: cell-based
Conditions: patch clamp, holding potential −100 mV, steps to about +10 mV
Method: HEK-293T/17 cells are transiently transfected in a similar manner as described in FuGENE 6 Package Insert Version 7, April 2002, Roche Applied Science, Indianapolis, Ind. The cells are plated at 2.5×10^5 cells in 2 mL in a 6-well plate in incubator for one night and achieve a 30 40% confluence. In a small sterile tube, add sufficient serum-free medium as diluent for FuGENE Transfection Reagent (Roche Applied Science, Indianapolis, Ind.), to a total volume of 100 μL. Add 3 μL of FuGENE 6 Reagent directly into this medium. The mixture is tapped gently to mix. 2 μg of DNA solution (0.8-2.0 μg/μL) is added to the prediluted FuGENE 6 Reagent from above. The DNA/Fugene 6 mixture is gently pipeted to mix the contents and incubated for about 15 minutes at room temperature. The complex mixture is then added to the HEK-293T/17 cells, distributing it around the well, and swirled to ensure even dispersal. The cells are returned to the incubator for 24 hrs. The transfected cells are then replated at density 2.5×10^5 in a 35 mm dish with 5 glass coverslips and grow in low serum(1%) media for 24 hrs. Coverslips with isolated cells are then transferred into chamber and calcium channel ([…].) current or other currents for counter screening are recorded from the transiently transfected HEK-293T/17 cells. The whole-cell voltage clamp configuration of the patch clamp technique is employed to evaluate voltage-dependent calcium currents essentially as described by Thompson and Wong (1991) J. Physiol., 439: 671-689. […] Table 3 contains IC50's for representative compounds.

IC50 (read-out: IC50) | SMILES | IC50
– | COc1ccccc1-c1nc(CCN(C)c2ccc(F)cc2)cn1-c1ccc(Cl)cc1 [Compound 1] | 0.046 µM
0.99 µM | COc1ccccc1-c1nc(CCN2CCCC2)cn1-c1ccc(Cl)cc1 [Compound 6] | –
0.173 µM | COc1ccccc1-c1nc(Cc2nc3ccccc3[nH]2)cn1-c1ccc(Cl)cc1 [Compound 2, 2-[1-(4-Chloro-phenyl)-2-(2-methoxy-phenyl)-1H-imidazol-4-ylmethyl]-1H-benzoimidazole] | –
